Source: patent US4036957A, “Phenoxy compounds in combinations to suppress gastric bleeding in aspirin therapy” (priority 1975, dated 1977)
Like-named read-outs stand apart in the source and are kept apart here.

How the values were obtained:
[1] = system: aspirin-induced gastric bleeding; experiment: Prevention of aspirin-induced gastric bleeding in pyloric-ligated rats, i.p. test compound (Examples 1-22); assay type: in vivo, Female Sprague-Dawley rats; conditions: rat
Experimental: The prevention of aspirin-induced bleeding in rats was determined by the following procedure. Female Sprague-Dawley rats weighing 150-180 g. were fasted for 24 hours on wire and divided into groups of six animals each. The rats were anesthetized and a ligature placed at the pyloric-duodenal junction. Groups serving as controls received normal saline (4.0 ml/kg, i.p.). […] Some of the compounds were tested at 50 mg/kg, i.p. The rats were sacrificed 60 min. after aspirin administration by cervical dislocation. The volume of the gastric contents was determined and compared against that produced with the same amount of aspirin for change in volume. […] (Gradation between 0 to 40 is on an even scale).

[2] = system: aspirin-induced gastric bleeding; experiment: Aspirin-induced gastric bleeding in Cr51 labeled Heidenhain pouch dogs, oral; assay type: in vivo; conditions: dog; for Mucosal Blood Loss, HCl + Aspirin / Mucosal Blood Loss, HCl: ± S.E.; for Mucosal Blood Loss, HCl: without aspirin; for % Change from Control (mucosal blood loss): P >0.05
Experimental: Methocarbamol (Compound 3) and Metaxalone (Compound 15) were evaluated for their effectiveness upon oral administration against aspirin-induced gastric bleeding in dogs. Three female chronic Heindehain pouch dogs were used. Red blood cells from each dog were labeled with Cr^51. The dogs were fasted 24 hours prior to any study and three days elapsed between studies. On experimental days each fundic pouch was rinsed with tepid tap water and then filled with 10 ml. of normal saline. After 30 minutes the saline was replaced with 10 ml. of artificial gastric juice (USP, pH 1.3). The dogs were given Compound 3 (200 mg/kg) or Compound 15 (50 and 100 mg/kg) or placebo (starch) orally in gelatin capsules. The 10 ml. of gastric juice was removed from the pouch after 60 minutes and replaced with another 10 ml. of juice containing 100 mg. of aspirin (80 mesh). This was likewise removed after 60 minutes. All samples collected from the pouches were counted for radio-activity using a deep-well counter. From the amount of radio-activity present in the gastric samples, the loss of blood into the pouch was determined. The results are shown in Table 3 and show the effectiveness of orally administering Compounds 3 and 15 in preventing aspirin-induced gastric bleeding.

[3] = system: Carrageenan pleural effusion; experiment: Evans Blue-Carrageenan Pleural Effusion Test; assay type: in vivo, rats; conditions: rat
Source text: The effect of metaxalone (Compound 15) on the anti-inflammatory activity of aspirin in rats was studied using a modification of the Evans Blue-Carrageenan Pleural Effusion Test [Sancilio, L. F., Journal of Pharmacology and Experimental Therapeutics 168, 199-204 (1969)].

[4] = system: aspirin-induced gastric bleeding; assay type: in vivo, cats; conditions: cat, 30 min, aspirin 10 mg topical, no glyceryl guaiacolate
Experimental: Fasted cats weighing […] were anesthetized with phenobarbital sodium (130 mg/kg, i.p.). Glyceryl guaiacolate was administered intravenously for a total of 2 hrs. beginning 60 min. prior to the topical application of the aspirin (10 mg) to the gastric mucosa. Throughout the experiment, artificial gastric juice (USP, pH 1.3) bathed the mucosa by means of the specially designed chamber. The number of bleeding sites occurring at various exposure sites were recorded at 15, 30 and 60 min. Glyceryl guaiacolate was given at doses of 10 and 30 mg/kg/hr via a previously cannulated jugular vein using an infusion pump (Harvard Apparatus Co., Model 1202). […] An important point is that with 30 mg/kg/hr, i.v., of glyercyl guaiacolate there was no bleeding at 30 min. compared with an average of 14 bleeding sites when no glyceryl guaiacolate was adminsitered. A total of 23 cats were used and there was a minimum of 24 aspirin exposure sites for each dose of glyceryl guaiacolate.

Cc1cc(C)cc(OCC2CNC(=O)O2)c1 (centres unmarked) [Compound 15, 5-(3,5-dimethylphenoxymethyl)-2-oxazolidinone]
change in vivo at 50 mg/kg ([1]; ip, 1 h, 50 mg/kg i.p., aspirin 375 mg/kg p.o., read-out: Percent Decrease in Mucosal Bleeding vs Control): -98%
change in vivo at 100 mg/kg ([1]; ip, 1 h, 100 mg/kg i.p., aspirin 375 mg/kg p.o., read-out: Percent Decrease in Mucosal Bleeding vs Control): -96%
ED50 ([1]; ip): 19.6 mg/kg
change in vivo at 100 mg/kg ([1]; ip, 100 mg/kg i.p. (column head states no dose), aspirin 375 mg/kg p.o., read-out: Vol. % Decrease in Gastric Secretion): -41.4%
Gastric Bleeding Index ([1]; 12.5 mg/kg i.p.): 27.5 ± 4.2
Total Hemoglobin Loss ([1]; 12.5 mg/kg i.p.): 19.3 ± 3.4 mg
Vol. Gastric Secretion ([1]; 12.5 mg/kg i.p.): 6.3 ± 0.3 mL
Percent Decrease in Mucosal Hemorrhage vs Control ([1]; 12.5 mg/kg i.p., P >.05): 21%
Gastric Bleeding Index ([1]; 25.0 mg/kg i.p.): 15.0 ± 5.0
Total Hemoglobin Loss ([1]; 25.0 mg/kg i.p.): 15.3 ± 6.3 mg
Vol. Gastric Secretion ([1]; 25.0 mg/kg i.p.): 5.1 ± 0.3 mL
Percent Decrease in Mucosal Hemorrhage vs Control ([1]; 25.0 mg/kg i.p., P <.025): 57%
Gastric Bleeding Index ([1]; 50.0 mg/kg i.p.): 0.8 ± 0.8
Total Hemoglobin Loss ([1]; 50.0 mg/kg i.p.): 2.5 ± 1.1 mg
Vol. Gastric Secretion ([1]; 50.0 mg/kg i.p.): 3.6 ± 0.5 mL
Percent Decrease in Mucosal Hemorrhage vs Control ([1]; 50.0 mg/kg i.p., P <.001): 98%
Gastric Bleeding Index ([1]; 100.0 mg/kg i.p.): 3.3 ± 1.7
Total Hemoglobin Loss ([1]; 100.0 mg/kg i.p.): 2.5 ± 1.4 mg
Vol. Gastric Secretion ([1]; 100.0 mg/kg i.p.): 3.8 ± 0.4 mL
Percent Decrease in Mucosal Hemorrhage vs Control ([1]; 100.0 mg/kg i.p., P <.001): 91%
preventing aspirin-induced gastric bleeding (in words) ([1]; i.p.): very effective
Gastric Bleeding Index ([1]; score 0 to 40, 100 mg/kg i.p. (column head states no dose), aspirin 375 mg/kg p.o.): 0.8
% Protection ([2]; 50 mg/kg p.o.): 77%
Mucosal Blood Loss, HCl + Aspirin ([2]; 50 mg/kg p.o.): 8.6 ± 3.7 µL
Mucosal Blood Loss, HCl ([2]; 50 mg/kg p.o.): 4.4 ± 2.4 µL
% Change from Control (mucosal blood loss) ([2]; 50 mg/kg p.o.): +95%
% Protection ([2]; 100 mg/kg p.o.): 100%
Mucosal Blood Loss, HCl + Aspirin ([2]; 100 mg/kg p.o.): 12.7 ± 3.5 µL
Mucosal Blood Loss, HCl ([2]; 100 mg/kg p.o.): 13.0 ± 1.5 µL
% Change from Control (mucosal blood loss) ([2]; 100 mg/kg p.o.): -2%
preventing aspirin-induced gastric bleeding (in words) ([2]; oral): effectiveness
effect on the anti-inflammatory effectiveness of aspirin ([3]; metaxalone 100 mg/kg 30 min before aspirin 150 mg/kg p.o. and again 2 hrs after Carrageenan): no effect

CC(=O)Oc1ccccc1C(=O)O [Aspirin, aspirin]
average number of bleeding sites [4]: 14 bleeding sites
Pleural Fluid ([3]; aspirin 150 mg/kg oral, ± S.D., P <0.05): 4.2 ± 0.28 mL
% Decrease in Pleural Fluid vs Control ([3]; aspirin 150 mg/kg oral, P <0.05): 38%
